Earlier results on three molecules are cited in patent US7482336B2, “Aminocyclohexanes as dipeptidyl peptidase-IV inhibitors for the treatment or prevention of diabetes” (Merck & Co., Inc., priority 2004, dated 2009).

The target of one data set is T1, DPP-IV (Homo sapiens, UniProt P27487).
T1 construct: GRF is rapidly degraded in plasma to GRF[3-44]

The conditions of data set [1]: mouse, cyclophosphamide-induced neutropenia; WO 99/56753.
The conditions of data set [2]: rats; Transplantation 63: 1495-1500 (1997).

T1 sequence (P27487 whole entry, species assumed): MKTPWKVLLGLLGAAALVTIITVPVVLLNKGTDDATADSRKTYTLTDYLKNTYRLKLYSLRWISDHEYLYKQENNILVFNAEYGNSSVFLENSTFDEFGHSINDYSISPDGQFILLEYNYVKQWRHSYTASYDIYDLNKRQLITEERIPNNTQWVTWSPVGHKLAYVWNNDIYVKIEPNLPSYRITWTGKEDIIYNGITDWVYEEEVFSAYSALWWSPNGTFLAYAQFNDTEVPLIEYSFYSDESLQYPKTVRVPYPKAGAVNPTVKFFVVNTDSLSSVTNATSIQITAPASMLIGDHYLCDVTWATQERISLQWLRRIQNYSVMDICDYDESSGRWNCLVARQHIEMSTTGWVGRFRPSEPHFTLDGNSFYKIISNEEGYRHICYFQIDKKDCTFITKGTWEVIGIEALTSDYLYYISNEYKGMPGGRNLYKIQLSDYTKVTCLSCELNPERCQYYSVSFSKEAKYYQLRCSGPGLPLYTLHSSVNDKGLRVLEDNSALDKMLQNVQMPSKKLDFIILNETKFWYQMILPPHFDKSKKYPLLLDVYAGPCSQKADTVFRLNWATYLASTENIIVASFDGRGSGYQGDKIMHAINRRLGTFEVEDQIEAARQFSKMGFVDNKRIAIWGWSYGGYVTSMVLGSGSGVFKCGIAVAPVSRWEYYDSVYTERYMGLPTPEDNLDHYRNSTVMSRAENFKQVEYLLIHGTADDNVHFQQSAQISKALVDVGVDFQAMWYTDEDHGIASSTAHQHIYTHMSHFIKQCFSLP

On to diprotin A, for which, at DPP-IV, the “degradation of GRF in plasma to GRF[3-44]” value was “prevented”.

As to `CC(C)[C@H](N)C(=O)N1CCC[C@H]1B(O)O` [Val-Boro-Pro], the hematopoiesis entry in data set [1] is on record as “stimulated hematopoiesis”.

With `CC(C)N1CCC(c2ccccc2)(c2ccccc2)CC1` [Prodipine, Pro-Pro-diphenyl-phosphonate], the cardiac allograft survival entry in data set [2] was “double cardiac allograft survival in rats from day 7 to day 14”.
